Converted amounts (≈) assume the structure as drawn. Like-named read-outs stand apart in the source and are kept apart here.
What was measured:
[1] = tested on: Escherichia Coli Resistant Tetracycline ATCC 11 303 = UC 1261; assay: MIC, dilution in liquid medium; assay type: cell-based; conditions: for MIC: Escherichia coli
Method: (§1) The method used was a dilution of a liquid medium where a series of tubes received the same quantity of a sterile nutritive media and increasing doses of the test compounds were placed therein. Then each tube was seeded with a bacterial strain and was incubated for 24 to 48 hours at 37° C. in an oven. The increasing inhibition was determined by transillumination to determine the minimum inhibiting concentration (MIC in […]) and the results are reported in the following Tables.

Enterobacter cloacae 681 = assay: MIC, dilution in liquid medium; assay type: cell-based
Method: as §1

[2] = tested on: Klebsiella pneumoniae Exp. 52 145; assay: MIC, dilution in liquid medium; assay type: cell-based; conditions: for MIC: Klebsiella pneumoniae
Method: as §1

[3] = tested on: Klebsiella pneumoniae 2 536 Resistant Gentamicine; assay: MIC, dilution in liquid medium; assay type: cell-based; conditions: for MIC: Klebsiella pneumoniae
Method: as §1

[4] = tested on: Salmonella typhimurium 420; assay: MIC, dilution in liquid medium; assay type: cell-based; conditions: for MIC: Salmonella enterica, TYPHIMURIUM
Method: as §1

[5] = tested on: Proteus mirabilis (indol-) A 235; assay: MIC, dilution in liquid medium; assay type: cell-based; conditions: for MIC: Proteus mirabilis
Method: as §1

[6] = tested on: Bacillus subtilis ATCC 6 633; assay: MIC, dilution in liquid medium; assay type: cell-based; conditions: for MIC: Bacillus subtilis
Method: as §1

[7] = tested on: Streptococcus pyogenes A 561; assay: MIC, dilution in liquid medium; assay type: cell-based; conditions: for MIC: Streptococcus pyogenes, read-out: M.I.C.
Method: as §1

[8] = tested on: Escherichia Coli Resistant Gentamicine, Tobramycine R 55 123 D; assay: MIC, dilution in liquid medium; assay type: cell-based; conditions: for MIC: Escherichia coli
Method: as §1

[9] = tested on: Staphylococcus aureus exp. n° 54 146; assay: MIC, dilution in liquid medium; assay type: cell-based; conditions: for MIC: Staphylococcus aureus
Method: as §1

[10] = tested on: Staphylococcus aureus UC 1 128 Pen-Resistant; assay: MIC, dilution in liquid medium; assay type: cell-based; conditions: for MIC: Staphylococcus aureus, read-out: M.I.C.
Method: as §1

[11] = tested on: Escherichia Coli Exp. TO26 B6; assay: MIC, dilution in liquid medium; assay type: cell-based; conditions: for MIC: Escherichia coli
Method: as §1

[12] = tested on: Staphylococcus aureus ATCC 5 638 Pen-Sensible = UC 1061; assay: MIC, dilution in liquid medium; assay type: cell-based
Method: as §1

[13] = tested on: Escherichia Coli Sensible Tetracycline ATCC 9 637 = 1020; assay: MIC, dilution in liquid medium; assay type: cell-based; conditions: for MIC: Escherichia coli
Method: as §1

[14] = tested on: Pseudomonas 3 935 Exp. SG; assay: MIC, dilution in liquid medium; assay type: cell-based
Method: as §1

[15] = tested on: Streptococcus faecalis 99 F 74; assay: MIC, dilution in liquid medium; assay type: cell-based
Method: as §1

[16] = tested on: Streptococcus faecalis 5 432; assay: MIC, dilution in liquid medium; assay type: cell-based
Method: as §1

Providencia Du 48 = assay: MIC, dilution in liquid medium; assay type: cell-based
Method: as §1

[17] = tested on: Proteus vulgaris (indol+) A 232; assay: MIC, dilution in liquid medium; assay type: cell-based; conditions: Proteus vulgaris, read-out: M.I.C.
Method: as §1

Acute toxicity in mice = assay type: in vivo, female mice of Swiss CD1 Specific Pathogen Free Strain; conditions: for Total Mortality: 4 days
Method: The acute toxicity of the product of Example 7 was determined on groups of 8 to 10 female mice of Swiss CD1 Specific Pathogen Free Strain (stock CH.River-France), with an average weight of 19 to 21 g, for each dose of the compound.
The animals had injection in the caudal vein in a variable volume at a rate of 1 ml/mn of the product of Example 7 dissolved at a concentration of 100 mg/ml in sterile apyrogen distilled water.

[18] = tested on: Salmonella typhimurium 5210; assay: Experimental infection with Salmonella typhimurium in mice; assay type: in vivo
Method: Groups of 10 mice with an average weight of 20.5 g were intraperitoneally injected with 0.5 ml of a 24 hour old culture in oxoid bouillon of Salmonella typhimurium 5210 diluted 1/75 with distilled water. The product of Example 7 was administered subcutaneously one hour and 4, 8, 24 and 32 hours after the infection and the results, determined as before, are reported in the following Table.

In the case of `CC(=O)OCC1=C(C(=O)O)N2C(=O)[C@@H](NC(=O)/C(=N/O)c3csc(N)n3)[C@H]2SC1` [3-acetoxymethyl-7-[2-(2amino-4-thiazolyl)-2-hydroxyiminoacetamido]-ceph-3-eme-4-carboxylic acid], the MIC ([1]; 24 h) is reported as 1 µg/mL (≈ 2.27 µM), the MIC ([1]; 48 h) is reported as 1 µg/mL (≈ 2.27 µM) and the MIC (Enterobacter cloacae 681; Enterobacter cloacae, 681, 24 h) is reported as 40 µg/mL (≈ 90.6 µM). It also gave an MIC (Enterobacter cloacae 681; Enterobacter cloacae, 681, 48 h) of 40 µg/mL (≈ 90.6 µM), an MIC ([2]; EXP.52145, 24 h, 24 H, read-out: M.I.C.) of 0.6 µg/mL (≈ 1.36 µM) and an MIC ([2]; EXP.52145, 48 h, 48 H) of 0.6 µg/mL (≈ 1.36 µM). It also gave an MIC ([3]; 24 h) of 20 µg/mL (≈ 45.3 µM), an MIC ([3]; 48 h) of 40 µg/mL (≈ 90.6 µM) and an MIC ([4]; 24 h) of 2 µg/mL (≈ 4.53 µM). For the same molecule, the MIC ([4]; 48 h) was 2 µg/mL (≈ 4.53 µM), the MIC ([5]; 24 h) was 2 µg/mL (≈ 4.53 µM) and the MIC ([5]; 48 h) was 2 µg/mL (≈ 4.53 µM). The MIC ([6]; ATCC6, 24 h, 24 H) was 2 µg/mL (≈ 4.53 µM), the MIC ([6]; ATCC6, 48 h, 48 H) was 5 µg/mL (≈ 11.3 µM) and the MIC ([7]; A561, 24 h, 24 H) was 0.5 µg/mL (≈ 1.13 µM). For the same molecule, the MIC ([7]; A561, 48 h, 48 H) was 0.5 µg/mL (≈ 1.13 µM), the MIC ([8]; 24 h) was 5 µg/mL (≈ 11.3 µM) and the MIC ([8]; 48 h, RG R55 123D, read-out: M.I.C.) was 10 µg/mL (≈ 22.7 µM). It also gave an MIC ([9]; 24 h) of 5 µg/mL (≈ 11.3 µM), an MIC ([9]; 48 h, read-out: M.I.C.) of 10 µg/mL (≈ 22.7 µM) and an MIC ([10]; UC1, 24 h) of 10 µg/mL (≈ 22.7 µM). For the same molecule, the MIC ([10]; UC1, 48 h) was 10 µg/mL (≈ 22.7 µM), the MIC ([11]; 24 h) was 2 µg/mL (≈ 4.53 µM) and the MIC ([11]; 48 h) was 2 µg/mL (≈ 4.53 µM). The MIC ([12]; 24 h, UC 1061 Pen-Sensible) was 5 µg/mL (≈ 11.3 µM), the MIC ([12]; 48 h, UC 1061 Pen-Sensible) was 5 µg/mL (≈ 11.3 µM) and the MIC ([13]; ATCC 9 / UC1020, 24 h, 24 H, ST UC 1020) was 3 µg/mL (≈ 6.8 µM). The MIC ([13]; ATCC 9 / UC1020, 48 h, 48 H, ST UC 1020) was 3 µg/mL (≈ 6.8 µM).

With `CO/N=C(\C(=O)N[C@@H]1C(=O)N2C(C(=O)O)=C(COC(C)=O)CS[C@H]12)c1csc(N)n1` [Example 7, sodium 3-acetoxymethyl-7-[2-(2-amino-4-thiazolyl)-2-methoxyiminoacetamido]-ceph-3-eme-4-carboxylate] the M.I.C. ([14]; 24 H) was 10 µg/mL, the M.I.C. ([14]; 48 H) was 20 µg/mL and the M.I.C. ([1]; 24 H) was ≤ 0,02 μg/ml. The M.I.C. ([1]; 48 H) was ≤ 0,02 μg/ml, the M.I.C. ([15]; 24 H) was 3 µg/mL and the MIC ([15]; Enterococcus faecalis, 99F74, 48 h, read-out: M.I.C.) was 10 µg/mL. For the same molecule, the M.I.C. ([2]; 24 H) was ≤ 0,02 μg/ml, the M.I.C. ([2]; 48 H) was at most 0.02 µg/mL and the M.I.C. ([3]; 24 H) was 0,2 μg/ml. For the same molecule, the M.I.C. ([3]; 48 H) was 0,2 μg/ml, the M.I.C. ([4]; 24 H) was 0,1 μg/ml and the M.I.C. ([4]; 48 H) was 20 µg/mL. For the same molecule, the M.I.C. ([5]; 24 H) was ≤ 0,02 μg/ml, the M.I.C. ([5]; 48 H) was ≤ 0,02 μg/ml and the M.I.C. ([6]; 24 H) was 1 µg/mL. It also gave a M.I.C. ([6]; 48 H) of 2 µg/mL, a M.I.C. ([16]; 24 H) of 1 µg/mL and a M.I.C. ([16]; 48 H) of 3 µg/mL. For the same molecule, the M.I.C. ([7]; 24 H) was 0,01 μg/ml, the M.I.C. ([7]; 48 H) was 0,01 μg/ml and the M.I.C. ([8]; 24 H) was 0,1 μg/ml. The M.I.C. ([8]; 48 H) was 0,1 μg/ml, the M.I.C. ([9]; 48 H) was 2 µg/mL and the MIC ([9]; 24 h) was 2 µg/mL. For the same molecule, the M.I.C. (Providencia Du 48; 24 H) was 1 µg/mL, the M.I.C. (Providencia Du 48; 48 H) was 2 µg/mL and the M.I.C. ([10]; 24 H) was 2 µg/mL. The M.I.C. ([10]; 48 H) was 3 µg/mL, the M.I.C. ([11]; 24 H) was 0,05 μg/ml and the M.I.C. ([11]; 48 H) was 0,05 μg/ml. For the same molecule, the MIC ([12]; 48 h) was 2 µg/mL, the MIC ([17]; 24 h) was 0.2 µg/mL and the MIC ([17]; 48 h) was 0.6 µg/mL. The M.I.C. ([13]; 24 H) was 0,1 μg/ml, the MIC ([13]; ATCC9, 48 h, 48 H, read-out: M.I.C.) was 0.1 µg/mL and the lethal dose (Acute toxicity in mice; caudal vein, mice) was “above 2000 mg/kg”. The “Total Mortality” value (Acute toxicity in mice; dose 500 mg, caudal vein) was 0/10, the “Total Mortality” value (Acute toxicity in mice; dose 1000 mg, caudal vein) was 0/10 and the “Total Mortality” value (Acute toxicity in mice; dose 2000 mg, caudal vein) was 0/8. The Symptomatology (Acute toxicity in mice; following the injections and during the observation period) was “No symptoms of intoxication were noted”, the “MORTALITY AFTER 6J” value ([18]; 0,1 mg subcutaneously) was 3 and the “MORTALITY AFTER 7J” value ([18]; 0,1 mg subcutaneously) was 3. The “MORTALITY AFTER 8J” value ([18]; 0,1 mg subcutaneously) was 1, the “Mice alive on the 10th day” value ([18]; 0,1 mg subcutaneously) was 3/10 and the “MORTALITY AFTER 5J” value ([18]; 0,5 mg subcutaneously) was 1. The “MORTALITY AFTER 6J” value ([18]; 0,5 mg subcutaneously) was 1, the “MORTALITY AFTER 7J” value ([18]; 0,5 mg subcutaneously) was 1 and the “Mice alive on the 10th day” value ([18]; 0,5 mg subcutaneously) was 7/10. The “MORTALITY AFTER 7J” value ([18]; 0,25 mg subcutaneously) was 2, the “MORTALITY AFTER 8J” value ([18]; 0,25 mg subcutaneously) was 1 and the “MORTALITY AFTER 9J” value ([18]; 0,25 mg subcutaneously) was 2. For the same molecule, the “Mice alive on the 10th day” value ([18]; 0,25 mg subcutaneously) was 5/10, the “MORTALITY AFTER 8J” value ([18]; 1 mg subcutaneously) was 1 and the “Mice alive on the 10th day” value ([18]; 1 mg subcutaneously) was 9/10. For the same molecule, the “Mice alive on the 10th day” value ([18]; 2 mg subcutaneously) was 10/10.
